Patent US8993637B2 (priority 2013, dated 2015)

Tests used:
[1] = tested on: CD3+ T cells, F4/80+ macrophages; assay: Mouse FSGS model: renal infiltration of T cells and macrophages (immunohistochemistry); format: in vivo; conditions: days 14 and 28
Procedure: A progressive type of mouse FSGS model was used, particularly characterized by EPHLs, a key histopathology index of progression of FSGS, peri-glomerular inflammation, and progressive glomerular hyalinosis/sclerosis. The FSGS model was induced in 8-week-old male BALB/c mice (National Laboratory Animal Center, Taipei, Taiwan) by intravenous injection of a single dose of adriamycin (0.10 mg/10 g body weight) (Pfizer, New York, N.Y.) as described previously. […] Age- and sex-matched BALB/c mice were used as normal controls. Urine samples were collected in metabolic cages on days 3, 7, 14, 21, and 28. […] The concentration of urine protein was determined using BCA kits (Pierce, Rockford, Ill.) as described previously and normalized to urine creatinine (Cr) levels measured using kits (Wako Pure Chemical Industries, Osaka, Japan), as described previously. Serum levels of blood urea nitrogen (BUN) and Cr were determined using BUN kits and Cr kits (both from Fuji Dry-Chem Slide, Fuji Film Medical, Tokyo, Japan), as described previously.
Renal tissues were formalin-fixed, embedded in paraffin, and sections (4 μm) prepared and stained with hematoxylin and eosin (H&E) for renal histopathology as described previously or TUNEL stained for apoptosis as described previously. Renal pathology was examined and renal lesions scored as described previously. […]

RAW 264.7 macrophages [2] = assay: NO production assay (Griess reaction) in LPS-activated macrophages; format: cell-based, murine; conditions: 30 min preincubation, then 24 h LPS 1 μg/ml; p<0.05
Procedure: (§1) ROS production was measured as the relative fluorescence intensity. […] The data are expressed as the mean±SD for three separate experiments. *p<0.05, **p<0.01 compared to the LPS-treated group. RAW-Blue™ cells (Murine macrophages RAW264.7 stably transfected with the NF-κB reporter gene) purchased from InvivoGen (San Diego, Calif.). LPS (from Escherichia coli 0111:B4) and mouse antibodies against phospho-ERK1/2, phospho-JNK1/2, and phospho-p38 (all from Sigma, St. Louis, Mo.). Rabbit antibodies against mouse ERK1, JNK1, and p38, and HRP-labeled second antibodies were purchased from Santa Cruz Biotechnology, and IL-1β, IL-6, and TNF-α ELISA kits from R&D Systems. ROS production assay, NO production assay, NF-κB reporter assay, ELISA, and Western blotting were performed as described previously.

NF-κB in RAW-Blue cells = assay: NF-κB reporter assay (secreted embryonic alkaline phosphatase, QUANTI-Blue); format: cell-based, murine; conditions: 30 min preincubation, then 24 h LPS 1 μg/ml
Procedure: as §1

ROS and NO = assay: Mouse FSGS model: superoxide anion (ROS), DHE and NO in renal tissue, serum, urine; format: in vivo; conditions: days 14 and 28
Procedure: A progressive type of mouse FSGS model was used, particularly characterized by EPHLs, a key histopathology index of progression of FSGS, peri-glomerular inflammation, and progressive glomerular hyalinosis/sclerosis. The FSGS model was induced in 8-week-old male BALB/c mice (National Laboratory Animal Center, Taipei, Taiwan) by intravenous injection of a single dose of adriamycin (0.10 mg/10 g body weight) (Pfizer, New York, N.Y.) as described previously. […] Age- and sex-matched BALB/c mice were used as normal controls. Urine samples were collected in metabolic cages on days 3, 7, 14, 21, and 28. Renal cortical tissues and blood samples were collected when the mice were sacrificed and stored appropriately for further analysis. The concentration of urine protein was determined using BCA kits (Pierce, Rockford, Ill.) as described previously and normalized to urine creatinine (Cr) levels measured using kits (Wako Pure Chemical Industries, Osaka, Japan), as described previously. Serum levels of blood urea nitrogen (BUN) and Cr were determined using BUN kits and Cr kits (both from Fuji Dry-Chem Slide, Fuji Film Medical, Tokyo, Japan), as described previously. Superoxide anion levels in serum, urine, and kidney tissues were determined as described previously. The results were expressed as relative luminescence units (RLU) per 15 min per milliliter (i.e., RLU/15 min/ml) for serum and urine samples or per milligram dry weight (i.e., RLU/15 min/mg dry weight) for kidney tissues. In addition, renal superoxide anion levels were measured by dihydroethidium (DHE) binding, fluorescence being quantified by counting the percentage of the total nuclei that were positive per kidney cross section as described previously. NO levels in serum and urine were measured using NO detection kits (Abeam, Cambridge, Mass.) according to the manufacturer's instructions.

[3] = tested on: renal apoptosis; caspase-3, caspase-8, caspase-9, Bax/Bcl-2; assay: Mouse FSGS model: renal apoptosis (TUNEL), caspases, Bax/Bcl-2 ratio; format: in vivo
Procedure: A progressive type of mouse FSGS model was used, particularly characterized by EPHLs, a key histopathology index of progression of FSGS, peri-glomerular inflammation, and progressive glomerular hyalinosis/sclerosis. The FSGS model was induced in 8-week-old male BALB/c mice (National Laboratory Animal Center, Taipei, Taiwan) by intravenous injection of a single dose of adriamycin (0.10 mg/10 g body weight) (Pfizer, New York, N.Y.) as described previously. […] Age- and sex-matched BALB/c mice were used as normal controls. Urine samples were collected in metabolic cages on days 3, 7, 14, 21, and 28. Renal cortical tissues and blood samples were collected when the mice were sacrificed and stored appropriately for further analysis. The concentration of urine protein was determined using BCA kits (Pierce, Rockford, Ill.) as described previously and normalized to urine creatinine (Cr) levels measured using kits (Wako Pure Chemical Industries, Osaka, Japan), as described previously. Serum levels of blood urea nitrogen (BUN) and Cr were determined using BUN kits and Cr kits (both from Fuji Dry-Chem Slide, Fuji Film Medical, Tokyo, Japan), as described previously.
Renal tissues were formalin-fixed, embedded in paraffin, and sections (4 μm) prepared and stained with hematoxylin and eosin (H&E) for renal histopathology as described previously or TUNEL stained for apoptosis as described previously. Renal pathology was examined and renal lesions scored as described previously. For EPHLs and sclerosis, at least 50 glomeruli in sections were examined for each mouse. To detect apoptosis in renal tissues, TUNEL staining was performed using an in situ apoptosis detection kit (Chemicon, Temecula, Calif.) according to the manufacturer's instructions. For immunohistochemistry, methyl Carnoy solution-fixed and paraffin-embedded renal sections were prepared and incubated with goat antibodies against mouse collagen IV (Col-IV) (Southern Biotech, AL) or rabbit antibodies against phosphorylated mouse NF-κB p65 (Cell Signaling Technology, MA), F4/80 (Serotec, Raleigh, N.C.), or CD3 (Serotec), then with horseradish-conjugated rabbit anti-goat IgG antibodies or swine anti-rabbit IgG antibodies (both from Dako, Carpinteria, Calif.). Quantitative image analysis software (Pax-it; Paxcam, VIIIa Park, Ill.) was used to score Col-IV staining and the number of phosphorylated NF-κB p65-, CD3-, F4/80-, or TUNEL-positive cells as described previously.
Cytoplasmic and nuclear proteins from renal tissues were prepared using a kit (Active Motif, Tokyo, Japan) according to the manufacturer's instructions and target proteins detected by immunoblotting using goat antibodies against mouse Nrf2 or p47^phox, (Santa Cruz Biotechnology, Santa Cruz, Calif.) or rabbit antibodies against mouse NQO1 (Abcam), caspase-3, caspase-8, or caspase-9 (all from Cell Signaling Technology, MA) or Bcl2 or Bax (both from Santa Cruz Biotechnology), then with horseradish-conjugated rabbit anti-goat IgG antibodies or goat-anti-rabbit IgG antibodies (both from Santa Cruz Biotechnology) as described previously. Anti-β-actin antibody (Santa Cruz Biotechnology) was used as internal controls for the nuclear and cytosolic target proteins, respectively. Renal HO-1 levels were measured using a commercial ELISA kit (R&D Systems, Minneapolis, Minn.) according to the manufacturer's instructions.

RAW 264.7 macrophages [4] = assay: Pro-inflammatory cytokine ELISA in LPS-activated macrophages; format: cell-based, murine; conditions: LPS 1 μg/ml 24 h, culture medium
Procedure: as §1

CC(C)=CCCC(C)=CC=O (racemic) [Citral, 3,7-dimethyl-2,6-octadienal]
peri-glomerular infiltration of macrophages (F4/80+) ([1]; p<0.005): significantly decreased | renal peri-glomerular infiltration of T cells (CD3+) ([1]; p<0.05): markedly inhibited | LPS-induced increase in NO generation (RAW 264.7 macrophages [2]): inhibited | NF-κB transcriptional activity in LPS-stimulated macrophages (NF-κB in RAW-Blue cells): reduced | renal DHE levels (in situ ROS) (ROS and NO; p<0.01): suppressed | superoxide anion levels in renal tissues (ROS and NO; vs FSGS+vehicle mice, p<0.01): markedly decreased | superoxide anion levels in serum (ROS and NO; vs FSGS+vehicle mice, p<0.01): markedly decreased | superoxide anion levels in urine (ROS and NO; vs FSGS+vehicle mice, p<0.01): markedly decreased | NO levels in serum (ROS and NO; vs FSGS+vehicle, p<0.05): significantly reduced | NO levels in urine (ROS and NO; vs FSGS+vehicle, p<0.05): significantly reduced | mature form (p18 fragment) of renal caspase-8 ([3]; FSGS+vehicle vs FSGS+Citral vs normal control mice, data not shown): no detectable difference | renal apoptosis (TUNEL) in the glomerulus ([3]; day 28, p<0.005): significantly inhibited | renal apoptosis (TUNEL) in the renal tubule ([3]; days 14 and 28): significantly inhibited | mature form (p17 fragment) of caspase-3, renal levels ([3]; days 14 and 28, p<0.01): significantly inhibited | mature form (p37 fragment) of caspase-9, renal levels ([3]; days 14 and 28, p<0.05): suppressed | secretion level of IL-1β (RAW 264.7 macrophages [4]): inhibited | secretion level of IL-6 (RAW 264.7 macrophages [4]): inhibited | secretion level of TNF-α (RAW 264.7 macrophages [4]): inhibited
